From patent US20260216109A1, “TREATMENT OF SKIN DISORDERS WITH SHORT CHAIN FATTY ACIDS” (Temple University-Of The Commonwealth System of Higher …, priority 2023, published 2026)

Experiments:
TNF-α = assay: Multiplex (MSD V-PLEX) cytokine release, InflammaSkin: TNF-α; assay type: cell-based, human; settings: Example 1; Day 7 supernatant; SCFA (45 μg/mL Ca-propionate + 1 mM Ca-/Mg-butyrate) systemic, 0.05% Betamethasone topical; vs untreated InflammaSkin
Protocol: (§1) A total of 16 biopsies of 15 mm diameter were produced from a single donor. Two NativeSkin® models with 12/15 mm silicon rings were produced from the biopsies according to standard procedures in place, and cultured under cell culture conditions (37° C., 5% CO2, max. humidity) for 7 days with 2 mL of standard NativeSkin® medium renewed every day. Fourteen PSO-InflammaSkin® models with 12/15 mm silicon rings were produced by inducing in situ activation and Th17/Th1 polarization of skin resident T cells with a proprietary cocktail, and cultured under cell culture conditions (37° C., 5% CO2, max. humidity) for 7 days with 2 mL of PSO-InflammaSkin® culture medium renewed every day.
(§2) From Day 1 to Day 6, models were systemically treated with 1 μM Otezla or Short Chain Fatty Acids (SCFAs), or topically treated with positive control 0.05% Betamethasone
(§3) In these experiments, the SCFAs administered were 45 μg/mL of Ca-propionate and 1 mM mixture of salts (Ca-butyrate and Mg-butyrate).
At Day 7, supernatants were collected and stored at −80° C. and skin models of all conditions were carefully unmolded. Skin biopsies were re-punched to eliminate the area under the silicon ring, fixed in 10% buffered formalin and processed for paraffin wax embedding.
Human pro-inflammatory cytokines released in the supernatant were quantified using the V-PLEX Human IL-17A Kit (MesoScale Discovery, reference: K151RFD-1) and V-PLEX Human TNFα Kit (MesoScale Discovery, reference: K151QWD-1). Values are expressed in pg/mL. For each condition, single values, mean and SEM were plotted using GraphPad Prism. Statistical analysis was performed using a One Way ANOVA test.
PSO-InflammaSkin® models were cultured and treated as described in Example 1. In these experiments, the SCFAs administered were 45 μg/mL of Ca-propionate and 1 mM mixture of salts (Ca-butyrate and Mg-butyrate).
Human pro-inflammatory cytokines released in the supernatant were quantified using the V-PLEX Human IL-17A Kit (MesoScale Discovery, reference: K151RFD-1) and V-PLEX Human custom Pro-inflammatory. Plate 1 comprised Proinflammatory Panel 1 (human) kit reference K15049 (panel IFN-γ and TNF-α). Plate 2 comprised TH17 Panel 1 (human) kit reference K15049 (panel IL-17A Gen B, IL-21, IL-22, IL-23, IL-27, IL-31, MIP-3α).
(§4) Samples were diluted four times for plate 2 and two times for plate 1. Samples and standards were assessed in duplicate. Plates were read on MesoScale Discovery Quickpleax SQ 120 plate reader and values expressed in pg/mL.
A statistical analysis was performed. Each condition was compared to the untreated InflammaSkin® condition. First, the distribution's normality of the two compared group was assessed. […] If the two distributions were normal, the homogeneity of variances was assessed using a Fisher test on the variances. […]

IL-27 = assay: Multiplex (MSD V-PLEX) cytokine release, InflammaSkin: IL-27; assay type: cell-based, human; settings: Example 2; 0.05% Betamethasone topical; vs untreated InflammaSkin
Protocol: A total of 16 biopsies of 15 mm diameter were produced from a single donor. Two NativeSkin® models with 12/15 mm silicon rings were produced from the biopsies according to standard procedures in place, and cultured under cell culture conditions (37° C., 5% CO2, max. humidity) for 7 days with 2 mL of standard NativeSkin® medium renewed every day. Fourteen PSO-InflammaSkin® models with 12/15 mm silicon rings were produced by inducing in situ activation and Th17/Th1 polarization of skin resident T cells with a proprietary cocktail, and cultured under cell culture conditions (37° C., 5% CO2, max. humidity) for 7 days with 2 mL of PSO-InflammaSkin® culture medium renewed every day. […]
(§5) Human pro-inflammatory cytokines released in the supernatant were quantified using the V-PLEX Human IL-17A Kit (MesoScale Discovery, reference: K151RFD-1) and V-PLEX Human custom Pro-inflammatory. […]
as §4
(§6) A statistical analysis was performed. […] First, the distribution's normality of the two compared group was assessed. […] If the two distributions were normal, the homogeneity of variances was assessed using a Fisher test on the variances. […]

IL-17A = assay: Multiplex (MSD V-PLEX) cytokine release, InflammaSkin: IL-17A; assay type: cell-based, human; settings: Example 1; Day 7 supernatant; 1 μM Otezla or SCFA (45 μg/mL Ca-propionate + 1 mM Ca-/Mg-butyrate) systemic, 0.05% Betamethasone topical; vs untreated InflammaSkin
Protocol: as §1, §2, §3
At Day 7, supernatants were collected and stored at −80° C. and skin models of all conditions were carefully unmolded. […]
Human pro-inflammatory cytokines released in the supernatant were quantified using the V-PLEX Human IL-17A Kit (MesoScale Discovery, reference: K151RFD-1) and V-PLEX Human TNFα Kit (MesoScale Discovery, reference: K151QWD-1). […]
as §5, §4, §6

[1] = tested on: imiquimod (IMQ)-induced psoriasis model mice; assay: Transepidermal water loss (TEWL) on back skin, IMQ-induced psoriasis model in mice; assay type: in vivo, mouse; settings: Example 4, day 5, Apremilast 25 mg/kg BID p.o., SCFA fixed dose BID p.o., Etanercept 10 mg/kg Q3D s.c.
Protocol: Topical application of IMQ, a TLR7/8 ligand and potent immune activator induced and exacerbated psoriasis in mice. The mouse IMQ-induced psoriasis (IMQ Ps) model was initiated by a repeated topical application of Aldara© cream (containing 5% IMQ) over 6 consecutive days. Female Balb/c mice (9 weeks of age at reception, ordered with 20 g, Charles River, Sulzfeld, Germany; n=10 mice/group, exception healthy controls n=4) received daily a topical application of 62.5 mg of commercially available IMQ cream (5% Aldara©) on the beforehand (day −1) shaved (~2 cm×3 cm), depilated (Pilka© cream) back skin, and 7 mg on the outer right ear skin for 6 consecutive days, translating in a daily dose of approximately 3.5 mg IMQ. Healthy control mice were included in the study and were treated with vehicle cream (Vaseline; Bombastus-Werke AG) only instead of IMQ. Additionally, an IMQ disease control group was also included.
Physiological parameter transepidermal water loss (TEWL; in g/m^2/h) was tested and evaluated on back skin at day 5 by a Tewameter (TM300, Courage and Khazaka, Cologne, Germany) during the IMQ psoriasis experiment. TEWL is a common examined parameters for the assessment of a disturbed skin function present in psoriatic skin. TEWL may be used a diagnostic marker in the clinics to accurately assess the disease severity in psoriasis.

Compound	TNF-α levels decreased by (TNF-α)	increase of IL-27 cytokine secretion (IL-27)	IL-17A levels decreased by (IL-17A)	transepidermal water loss (TEWL) [1]
C[C@H]1C[C@H]2[C@@H]3CCC4=CC(=O)C=C[C@]4(C)[C@@]3(F)[C@@H](O)C[C@]2(C)[C@@]1(O)C(=O)CO [Betamethasone]	~ 40%	about 30%	about 70%	
Etanercept				did not show significant effects
